Measurements as given in ChEMBL document CHEMBL5614436, “Targeting HSP90 for Cancer Therapy: Current Progress and Emerging Prospects” (J Med Chem, 2024).

Columns and labels:
[1] = target: [Pyruvate dehydrogenase (acetyl-transferring)] kinase isozyme 1, mitochondrial (Homo sapiens, UniProt Q15118); test: Inhibition of PDHK1 (unknown origin)
[2] = target: T1, Heat shock protein HSP 90-alpha (Homo sapiens, UniProt P07900); test: Inhibition of HSP90alpha (unknown origin)
[3] = target: Endoplasmin (Homo sapiens, UniProt P14625); test: Inhibition of recombinant GRP94 (unknown origin)
[4] = target: T1, Heat shock protein HSP 90-alpha; test: Binding affinity to HSP90alpha (unknown origin) assessed as dissociation constant by fluorescence polarization assay
[5] = Inhibition of HSP90 (unknown origin) by AlphaScreen assay; design: species or system Homo sapiens
[6] = target: Heat shock protein HSP 90-beta (Homo sapiens, UniProt P08238); test: Binding affinity to HSP90beta (unknown origin) assessed as dissociation constant by fluorescence polarization assay
[7] = target: Serine/threonine-protein kinase B-raf (Homo sapiens, UniProt P15056); test: Inhibition of B-Raf (unknown origin)
[8] = target: Serine/threonine-protein kinase B-raf (Homo sapiens, UniProt P15056, V600E); test: Inhibition of B-Raf V600E mutant (unknown origin)
[9] = target: T1, Heat shock protein HSP 90-alpha; test: Binding affinity to recombinant HSP90alpha (unknown origin) assessed as dissociation constant measured for 24 hrs by fluorescence polarization assay
[10] = Inhibition of DNA topoisomerase 2 (unknown origin); design: species or system Homo sapiens
[11] = target: Tubulin; test: Inhibition of tubulin polymerization (unknown origin); assay type: protein-complex assay, Homo sapiens

Sequence of Heat shock protein HSP 90-beta (P08238 whole entry): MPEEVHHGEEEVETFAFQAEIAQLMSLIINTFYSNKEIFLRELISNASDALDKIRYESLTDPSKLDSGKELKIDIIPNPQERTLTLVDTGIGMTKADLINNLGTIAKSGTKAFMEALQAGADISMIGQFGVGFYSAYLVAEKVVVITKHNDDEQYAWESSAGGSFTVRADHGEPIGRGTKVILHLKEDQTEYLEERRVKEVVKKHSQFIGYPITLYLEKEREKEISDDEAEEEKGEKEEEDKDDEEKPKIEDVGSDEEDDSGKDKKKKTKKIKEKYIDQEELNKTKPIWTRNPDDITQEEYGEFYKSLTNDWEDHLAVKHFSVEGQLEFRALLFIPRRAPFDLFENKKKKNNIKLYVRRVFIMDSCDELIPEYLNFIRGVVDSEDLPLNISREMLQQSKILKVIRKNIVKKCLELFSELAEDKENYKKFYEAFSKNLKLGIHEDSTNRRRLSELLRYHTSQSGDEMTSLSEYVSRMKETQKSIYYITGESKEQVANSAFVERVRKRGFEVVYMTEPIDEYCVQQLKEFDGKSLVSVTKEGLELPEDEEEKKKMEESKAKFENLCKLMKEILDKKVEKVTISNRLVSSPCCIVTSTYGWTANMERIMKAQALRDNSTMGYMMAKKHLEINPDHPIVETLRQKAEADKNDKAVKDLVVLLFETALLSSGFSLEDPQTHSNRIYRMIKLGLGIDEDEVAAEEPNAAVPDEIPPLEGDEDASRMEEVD
Sequence of Serine/threonine-protein kinase B-raf (Homo sapiens, UniProt P15056) (P15056 whole entry): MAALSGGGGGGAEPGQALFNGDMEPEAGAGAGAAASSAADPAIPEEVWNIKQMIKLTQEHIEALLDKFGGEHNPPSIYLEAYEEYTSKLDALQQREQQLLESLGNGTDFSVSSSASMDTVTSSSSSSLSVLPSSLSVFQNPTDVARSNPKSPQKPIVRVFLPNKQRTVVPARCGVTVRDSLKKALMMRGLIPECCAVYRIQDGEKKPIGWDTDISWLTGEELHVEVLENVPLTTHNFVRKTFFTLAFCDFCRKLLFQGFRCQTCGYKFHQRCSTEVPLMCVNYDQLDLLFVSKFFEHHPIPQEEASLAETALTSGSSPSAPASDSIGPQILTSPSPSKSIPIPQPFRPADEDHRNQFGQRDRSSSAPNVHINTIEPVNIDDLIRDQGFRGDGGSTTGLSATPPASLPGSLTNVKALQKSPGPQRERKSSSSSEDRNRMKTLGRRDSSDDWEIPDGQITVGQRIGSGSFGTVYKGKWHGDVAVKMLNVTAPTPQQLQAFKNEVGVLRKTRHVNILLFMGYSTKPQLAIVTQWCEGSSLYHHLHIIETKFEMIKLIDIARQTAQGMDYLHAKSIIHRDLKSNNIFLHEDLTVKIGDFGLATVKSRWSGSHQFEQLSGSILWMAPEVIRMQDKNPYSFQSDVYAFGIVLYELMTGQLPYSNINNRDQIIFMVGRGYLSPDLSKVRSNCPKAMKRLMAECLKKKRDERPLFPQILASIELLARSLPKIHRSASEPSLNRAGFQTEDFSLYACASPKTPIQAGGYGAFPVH
Sequence of [Pyruvate dehydrogenase (acetyl-transferring)] kinase isozyme 1, mitochondrial (Q15118 whole entry): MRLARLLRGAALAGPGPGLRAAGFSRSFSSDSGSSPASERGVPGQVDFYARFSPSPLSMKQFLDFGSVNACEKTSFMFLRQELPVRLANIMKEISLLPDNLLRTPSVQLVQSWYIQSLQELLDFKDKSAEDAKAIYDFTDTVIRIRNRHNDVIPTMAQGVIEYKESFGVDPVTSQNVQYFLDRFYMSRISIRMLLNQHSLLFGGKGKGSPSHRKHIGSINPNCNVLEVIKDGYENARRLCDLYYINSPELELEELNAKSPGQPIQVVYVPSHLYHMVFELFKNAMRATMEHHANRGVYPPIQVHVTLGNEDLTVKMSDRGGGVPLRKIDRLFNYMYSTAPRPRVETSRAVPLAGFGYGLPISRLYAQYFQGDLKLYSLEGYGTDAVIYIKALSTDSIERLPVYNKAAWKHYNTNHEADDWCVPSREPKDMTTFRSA
Sequence of Serine/threonine-protein kinase B-raf (Homo sapiens, UniProt P15056, V600E) (P15056 2-766 V600E limits assumed): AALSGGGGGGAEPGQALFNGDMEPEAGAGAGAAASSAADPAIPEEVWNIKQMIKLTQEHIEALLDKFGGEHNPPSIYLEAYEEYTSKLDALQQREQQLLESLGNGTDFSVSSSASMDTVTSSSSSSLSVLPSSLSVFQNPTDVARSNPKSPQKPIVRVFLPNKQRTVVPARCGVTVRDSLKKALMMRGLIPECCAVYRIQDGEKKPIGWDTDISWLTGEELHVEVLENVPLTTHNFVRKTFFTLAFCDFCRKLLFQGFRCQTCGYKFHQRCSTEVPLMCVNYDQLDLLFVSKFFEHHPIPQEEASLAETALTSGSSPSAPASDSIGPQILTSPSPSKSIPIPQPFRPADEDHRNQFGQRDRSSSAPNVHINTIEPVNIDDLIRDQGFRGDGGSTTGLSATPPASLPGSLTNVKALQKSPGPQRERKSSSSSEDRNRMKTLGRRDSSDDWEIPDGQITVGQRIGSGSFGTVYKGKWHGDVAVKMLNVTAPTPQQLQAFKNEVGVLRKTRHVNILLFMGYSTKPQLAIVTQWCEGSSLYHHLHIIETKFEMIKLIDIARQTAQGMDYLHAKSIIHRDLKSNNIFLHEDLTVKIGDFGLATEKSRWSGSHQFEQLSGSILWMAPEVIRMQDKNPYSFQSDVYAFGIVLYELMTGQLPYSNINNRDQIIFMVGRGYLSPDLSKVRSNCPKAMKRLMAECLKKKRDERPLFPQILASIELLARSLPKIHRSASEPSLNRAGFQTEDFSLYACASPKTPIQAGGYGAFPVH
Sequence of Endoplasmin (P14625 whole entry): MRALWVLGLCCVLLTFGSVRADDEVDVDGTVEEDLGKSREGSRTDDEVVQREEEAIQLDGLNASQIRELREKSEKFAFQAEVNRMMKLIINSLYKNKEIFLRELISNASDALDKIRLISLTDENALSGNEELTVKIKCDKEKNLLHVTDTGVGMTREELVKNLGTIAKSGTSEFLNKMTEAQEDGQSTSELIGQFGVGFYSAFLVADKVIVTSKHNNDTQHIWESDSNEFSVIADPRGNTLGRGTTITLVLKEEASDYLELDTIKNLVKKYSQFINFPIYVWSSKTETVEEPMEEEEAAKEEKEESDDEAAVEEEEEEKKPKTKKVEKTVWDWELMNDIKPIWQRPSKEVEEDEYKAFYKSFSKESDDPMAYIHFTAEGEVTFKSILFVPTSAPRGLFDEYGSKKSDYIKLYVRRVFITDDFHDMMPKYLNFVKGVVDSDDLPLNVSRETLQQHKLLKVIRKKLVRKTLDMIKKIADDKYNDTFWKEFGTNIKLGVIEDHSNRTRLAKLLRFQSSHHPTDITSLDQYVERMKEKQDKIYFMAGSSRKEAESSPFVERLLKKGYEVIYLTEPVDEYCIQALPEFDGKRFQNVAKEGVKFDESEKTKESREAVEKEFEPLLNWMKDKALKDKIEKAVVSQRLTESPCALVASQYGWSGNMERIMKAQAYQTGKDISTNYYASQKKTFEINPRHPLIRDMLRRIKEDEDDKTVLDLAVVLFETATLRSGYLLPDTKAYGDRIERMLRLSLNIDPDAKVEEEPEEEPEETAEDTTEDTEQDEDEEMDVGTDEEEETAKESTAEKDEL

Which IC50 [1] does the source give for `COc1ccc(CN2CCC(NC(=O)c3noc(-c4cc(Cl)c(O)cc4O)c3-c3ccc(OC)cc3)CC2)cc1` here?
Its IC50 is 0.01 µM.

With `COc1ccc(-c2c(/C=C/C(=O)N3CCN(c4ccccc4OC)CC3)noc2-c2cc(Cl)c(O)cc2O)cc1` as the compound, how does the IC50 [1] read?
The IC50 was 0.6 µM.

With `CCOc1ccccc1Cn1ccnc1CCc1c(Cl)c(O)cc(O)c1C(=O)OC` as the compound, how does the IC50 [2] read?
The IC50 was 8.1 µM.

What about the IC50 [3] of the same compound?
Its IC50 is 0.2 µM.

For `Cc1c(C)c(S(=O)(=O)Nc2ccc(Nc3ccnc(N4CCNCC4)n3)cc2)c(C)c2c1OC(C)(C)C2`, which Kd [4] is on record?
Its Kd is 5.52 µM.

For `CC(C)c1cc(C(=O)N2CCc3c(sc4nc(-c5ccc(NC(=O)Nc6ccc(F)c(Cl)c6)cc5)nc(N5CCOCC5)c34)C2)c(O)cc1O`, which IC50 [5] is on record?
Its IC50 is 0.069 µM.

With `Cc1ccc(Sc2cc(C(=O)N3Cc4ccc(OCCC[N+](C)(C)C)cc4C3)ccc2O)cc1C` as the compound, how does the Kd [6] read?
The Kd was greater than 100 µM.

What about the Kd [4] of the same compound?
The Kd was 0.34 µM.

For `N#Cc1c(N)nc2sc(C(N)=O)c(N)c2c1-c1ccc(Cl)cc1`, which IC50 [7] is on record?
Its IC50 is 1.5 µM.

And the IC50 [8]?
The IC50 was 2.5 µM.

For `COc1ccc(-c2c(C#N)c(N)nc3sc(C(N)=O)c(N)c23)cc1OC`, which IC50 [7] is on record?
Its IC50 is 28.9 µM.

What about the IC50 [8] of the same compound?
Its IC50 is 9.1 µM.

What does the source list for `CCOC(=O)c1c(O)cc(O)c(Cl)c1CC(=O)Nc1cc(O)c(OC)cc1O`?
Kd [9]: 0.87 µM; Kd [4]: 0.87 µM

With `CC1(C)CC(=O)C=C(Nc2c(N)[nH]c(=O)[nH]c2=O)C1` as the compound, how does the IC50 [5] read?
Its IC50 is 1.78 µM.

What about the IC50 [10] of the same compound?
The IC50 was 4.48 µM.

With `CC(C)c1cc(C(=O)N2Cc3ccccc3C2)c(O)c2ccoc12` as the compound, how does the Kd [6] read?
The Kd was 0.27 µM.

And the Kd [4]?
Its Kd is greater than 100 µM.

What does the source list for `CN(C)c1ccc(/C=C2\S/C(=N/c3ccccc3Cl)NC2=O)cc1`?
IC50 [5]: 5.2 µM; IC50 [11]: 16.7 µM

With `CC(C)c1cc(C(=O)N2Cc3ccc(CN4CCN(C)CC4)cc3C2)c(O)cc1O` [ONALESPIB] as the compound, how does the Kd [6] read?
The Kd was 9 µM.
